The values below are quoted from earlier work in patent US20260355142A1, “AMORPHOUS OTE[…] COMPOSITIONS AND USES THEREOF AND DOSAGE REGIMENS FOR OTENAPROXESUL” (ANTIBE THERAPEUTICS INC., priority 2022, published 2026).

The conditions of this series: efficacious dose of naproxen, known in the art; cited from earlier work.

Turning to `COc1ccc2cc([C@H](C)C(=O)O)ccc2c1` [naproxen, (2S)-2-(6-methoxynaphthalen-2-yl) propanoic acid], the “patients with noticeable GI injury” value was “approximately 30%”.
